# From patent publication US10577346B2, “Benzobicycloalkane derivatives, their preparation and pharmaceutical use thereof” (priority 2016, dated 2020)
# Key:
# CYP3A4 = target: T1, CYP3A4 (Homo sapiens, UniProt P08684); experiment: Inhibition of CYP enzyme (CYP3A4, midazolam substrate, liver microsomes); assay type: in vitro ADME; conditions: for CYP3A4(M) inhibition rate/1 μM: midazolam (M) as probe substrate; for inhibition at 5 min, 1 μM: human, pH 7.4, midazolam (M) as probe substrate
# T1 construct: from tissue; host or cells: liver microsomes
# Description: Assay 3: Inhibition of CYP Enzyme
# 1. 0.1 M potassium phosphate buffer (K-buffer), pH 7.4 was preheated;
# 100 mM K-Buffer: 9.5 mL Stock A and 40.5 mL Stock B were mixed, brought to a total volume of 500 mL with Milli-Q water, and titrated to pH 7.4 of KOH or H3PO4;
# Stock A (1 M monobasic potassium phosphate): 136.5 g of monobasic potassium phosphate was dissolved in 1 L of Milli-Q water; and
# Stock B (1 M dibasic potassium phosphate): 174.2 g of dibasic potassium phosphate was dissolved in 1 L of Milli-Q water.
# 2. Serial dilutions of test compounds and reference inhibitors (400×) were prepared in a 96-well plate:
# 2.1 8 μL of 10 mM test compounds was transferred to 12 μL of ACN. 2.2 A separate inhibitor solution was prepared for reference: 8 μL of inhibitor DMSO stock was added with 12 μL of ACN.
# 2.3 A 1:3 serial dilution was prepared with a DMSO:ACN mixture (v/v: 40:60).
# 3. 4×NADPH cofactor (66.7 mg NADPH dissolved in 10 mL 0.1 M K-buffer, pH 7.4) was prepared.
# 4. 4× substrate (2 mL for each isoform) was prepared as indicated in the table below (Liver microsomes must be added on ice).
# 5. 0.2 mg/mL liver microsome solution (990 μL of 0.1 M K-buffer was added to each 10 μL of 20 mg/mL) was prepared on ice.
# 6. 200 μL of 0.2 mg/mL liver microsomes was added on ice to a 96-well plate and then 1 μL of test compound or reference compound was added into corresponding wells.
# 7. The following solutions were added to a 96-well plate (in duplicate) on ice:
# 7.1 30 μL of 2× test compounds and reference compound in 0.2 mg/mL liver microsome solution were added;
# 7.2 15 μL of 4× substrate solution was added.
# 8. The 96-well assay plate and NADPH solution were pre-heated at 37° C. for 5 minutes.
# 9. 15 μL of pre-heated 8 mM NADPH solution was added into the assay plates to initiate the reaction.
# 10. The 3A4 subtype was incubated at 37° C. for 5 min for.
# 11. The reaction was quenched by adding 120 μL of ACN containing an internal standard.
# 12. After quenching, the plates were shaked in a vibrator (IKA, MTS 2/4) for 5 min (600 rpm/min) and then centrifuged at 3, 750 rpm for 15 min (Allegra X-12R centrifuge).
# 13. After centrifugation, 50 μL of the supernatant from each well was taken into a 96-well plate containing 70 μL of wastons water and mixed for LC/MS analysis.
# [1] = target: T2, hERG potassium ion channel (Homo sapiens, UniProt Q12809); experiment: Inhibition of hERG potassium ion channel, manual whole-cell patch clamp in CHO hERG cells; assay type: cell-based; conditions: CHO cells stably expressing hERG
# T2 construct: host or cells: CHO cells stably expressing hERG
# Description: (§1) Assay 2: Inhibition of hERG Potassium Ion Channel
# (§2) 2.1.1 Cells used in this experiment were CHO cell lines transfected with hERG cDNA and stably expressing hERG channels (supplied by Sophion Bioscience, Denmark), with cell progeny being P15. Cells were cultured in medium containing the following ingredients Invitrogen): Ham's F12 medium, 10% (v/v) inactivated fetal bovine serum, […] hygromycin B, and […] Geneticin.
# (§3) 2.1.2 CHO hERG cells were grown in Petri dishes containing the above medium and cultured in an incubator of 5% CO2 at 37° C. CHO hERG cells were transferred onto round glass plates in Petri dishes and grown on the same culture medium and culture conditions as above 24 h to 48 h prior to the electrophysiological experiments. The density of CHO hERG cells on each round glass plate must meet the requirements that the vast majority of cells are independent and separate.
# (§4) 2.2 Experimental Solution
# (§5) The following solutions (recommended by Sophion) were used for electrophysiological recording. The reagents used in this test were provided by Sigma.
# (§6) 2.3 Electrophysiological Recording System
# (§7) In this experiment, whole-cell current recording was performed using a manual patch clamp system (HEKA EPC-10 signal amplification and digital conversion system, purchased from HEKA Electronic, Germany). The round glass slide of which surface CHO hERG cells were grown on was placed in an electrophysiological recording slot under an inverted microscope. Extracellular fluid was perfused continuously in the recording slot (approximately 1 ml per minute). Conventional whole-cell patch clamp current recording technique was used in the experiment. Unless otherwise specified, the experiments were performed at normal room temperature (25° C.). Cell patch clamp at −80 mV. Cell patch clamp voltage was depolarized to +20 mV to activate hERG potassium channel, and to −50 mV after 5 sec to eliminate inactivation and generate tail currents. The tail current peak was used as a value for hERG current. When the hERG potassium current recorded in the above steps became steady under continuous perfusion of the extracellular fluid in the recording slot, the subject drug to be tested could be added to the perfusion until the inhibition of the hERG current by the drug reached a steady state. Typically, the most recent three consecutive current recording lines were generally used as a measure to determine whether the state was stable. After reaching a steady state, it was perfused with extracellular fluid for washing until the hERG current returned to the value before the drug adding. One or more drugs, or multiple concentrations of the same drug, could be tested on a single cell but it was necessary to rinse with extracellular fluid before testing a different drug. Cisapride (purchased from Sigma) was used as a positive control in the experiments to ensure normal quality of the cells used.
# (§8) 2.4 Treatment and Dilution of Compounds
# (§9) The compound was first dissolved in DMSO to a concentration of 10 mM and then the compound was diluted 1000-fold to a final test concentration of 10 μM using extracellular fluid.
# (§10) The final concentration of DMSO in the compound test solution was 0.1%. The test concentration of cisapride as a positive control was 0.1 μM. All stock solutions and test solutions were subjected to regular 5-10 minutes of sonication and shaking to ensure complete dissolution of the compound.
# (§11) The test data were analyzed by the data analysis software provided by HEKA Patchmaster (V2x73.2), Microsoft Excel and Graphpad Prism 5.0.
# in vivo = conditions: male, SD, rat, 10 mg/kg, oral administration of dezocine in rats, Dezocine dosed at 10 mpk
# Description: LC-MS/MS method was applied for the determination of the drug concentration in plasma at different times after the example compounds were administered via gavage to rats in order to study the pharmacokinetic behavior of the compounds of the disclosure in vivo in rats and evaluate their pharmacokinetic characteristics.
# Test animals: healthy adult male SD rats (weight 200-300 g, 3, fasted), provided by SLAC company;
# Administration and dosage: 16 mg/kg or 24 mg/kg, 10 mL/kg, 5% 1,2-propanediol (1,2-Propanediol, Shanghai Titan Technology Co., Ltd. Lot No.: P1057349)) was administered via oral gavage to SD rats;
# Blood collection: firstly, the animals which were selected to meet the test requirements prior to administration were weighed and labelled. The rats were bound before the blood collection, about 150 μl of blood from each administered rat was taken at predetermined time points via orbital vein (blood was collected before administration and at 0.083, 0.25, 0.5, 1, 2, 4, 6, and 8 h after administration respectively, 9 time points in total). Blood was transferred to a 1.5 ml tube to which K2EDTA was added previously. The collected blood sample was put on wet ice, and centrifuged (2000 g, 5 min under 4° C.) to obtain plasma sample, the whole process of which was completed within 15 minutes after blood collection. All the samples were stored at approximately −70° C. until analysis. […]
# [2] = cited from earlier work
# hERG potassium channel = target: T3, hERG potassium channel (Homo sapiens, UniProt Q12809); experiment: Inhibition of hERG potassium ion channel, manual whole-cell patch clamp in CHO hERG cells; assay type: cell-based; conditions: human, CHO cells stably expressing hERG
# T3 construct: host or cells: CHO cells stably expressing hERG
# Description: as §1, §2, §3, §4, §5, §6, §7, §8, §9, §10, §11
# T2 sequence (Q12809 whole entry): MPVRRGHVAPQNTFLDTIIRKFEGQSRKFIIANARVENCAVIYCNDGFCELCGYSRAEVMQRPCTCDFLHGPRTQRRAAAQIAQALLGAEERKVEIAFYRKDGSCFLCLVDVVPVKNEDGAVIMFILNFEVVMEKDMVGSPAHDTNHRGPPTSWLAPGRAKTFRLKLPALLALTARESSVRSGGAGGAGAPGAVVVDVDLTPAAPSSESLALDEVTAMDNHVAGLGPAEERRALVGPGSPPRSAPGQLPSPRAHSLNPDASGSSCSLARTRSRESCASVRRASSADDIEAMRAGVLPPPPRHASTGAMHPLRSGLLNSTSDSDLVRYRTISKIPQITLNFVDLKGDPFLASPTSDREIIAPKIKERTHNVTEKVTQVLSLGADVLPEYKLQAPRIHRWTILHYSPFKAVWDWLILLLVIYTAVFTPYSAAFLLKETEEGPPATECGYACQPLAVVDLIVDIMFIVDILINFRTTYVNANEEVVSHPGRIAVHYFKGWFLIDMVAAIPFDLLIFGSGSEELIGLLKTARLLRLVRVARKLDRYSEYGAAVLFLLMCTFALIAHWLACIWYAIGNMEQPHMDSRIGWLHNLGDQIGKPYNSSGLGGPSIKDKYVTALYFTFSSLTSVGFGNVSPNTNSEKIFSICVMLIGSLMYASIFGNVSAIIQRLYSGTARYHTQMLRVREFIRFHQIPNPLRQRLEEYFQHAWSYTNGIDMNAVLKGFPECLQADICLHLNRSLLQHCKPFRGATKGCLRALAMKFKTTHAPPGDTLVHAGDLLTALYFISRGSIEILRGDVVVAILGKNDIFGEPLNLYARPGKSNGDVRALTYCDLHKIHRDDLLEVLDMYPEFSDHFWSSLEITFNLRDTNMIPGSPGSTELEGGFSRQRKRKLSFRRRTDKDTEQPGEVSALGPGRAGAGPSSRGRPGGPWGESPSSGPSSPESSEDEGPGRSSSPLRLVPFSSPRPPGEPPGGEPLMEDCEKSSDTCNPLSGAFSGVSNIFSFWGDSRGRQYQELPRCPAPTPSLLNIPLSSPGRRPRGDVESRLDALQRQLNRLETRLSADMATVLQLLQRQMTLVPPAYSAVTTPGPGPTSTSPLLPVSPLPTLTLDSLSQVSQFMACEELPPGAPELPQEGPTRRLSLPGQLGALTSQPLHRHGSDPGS
# T1 sequence (P08684 whole entry): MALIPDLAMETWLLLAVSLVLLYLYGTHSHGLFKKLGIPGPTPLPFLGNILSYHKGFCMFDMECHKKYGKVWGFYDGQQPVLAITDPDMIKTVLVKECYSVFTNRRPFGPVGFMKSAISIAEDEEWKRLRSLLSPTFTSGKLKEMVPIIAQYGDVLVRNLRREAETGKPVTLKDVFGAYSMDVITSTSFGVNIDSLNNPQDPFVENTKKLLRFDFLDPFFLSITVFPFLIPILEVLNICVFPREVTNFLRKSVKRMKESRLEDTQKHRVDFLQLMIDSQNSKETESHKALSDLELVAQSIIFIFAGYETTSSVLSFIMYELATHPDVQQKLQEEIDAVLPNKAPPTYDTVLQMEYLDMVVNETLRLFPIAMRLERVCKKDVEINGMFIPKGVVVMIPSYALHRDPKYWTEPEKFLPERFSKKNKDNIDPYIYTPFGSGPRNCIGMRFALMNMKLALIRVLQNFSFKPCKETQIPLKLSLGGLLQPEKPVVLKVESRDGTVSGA
# T3 sequence (Q12809 whole entry): as the sequence (Q12809 whole entry) above
smiles,measurement,setting,value
C[C@@]12CCCCC[C@@H](Cc3ccc(OC(=O)N4CCC(O)CC4)cc31)[C@@H]2N [Compound Z-124],CYP3A4(M) inhibition rate/1 μM,CYP3A4,19.6%
C[C@@]12CCCCC[C@@H](Cc3ccc(OC(=O)N4CCC4)cc31)[C@@H]2N [Compound Z-137],CYP3A4(M) inhibition rate/1 μM,CYP3A4,45.3%
C[C@@]12CCCCC[C@@H](Cc3ccc(OC(=O)N4CCC(N5CCOCC5)CC4)cc31)[C@@H]2N [Compound Z-109],hERG inhibition rate/10 μM,[1],17.20%
same,CYP3A4(M) inhibition rate/1 μM,CYP3A4,6.6%
CN(C)C1CCN(C(=O)Oc2ccc3c(c2)[C@@]2(C)CCCCC[C@@H](C3)[C@@H]2N)CC1 [Compound Z-123],hERG inhibition rate/10 μM,[1],8.84%
same,CYP3A4(M) inhibition rate/1 μM,CYP3A4,0%
CCN(C(=O)Oc1ccc2c(c1)[C@@]1(C)CCCCC[C@@H](C2)[C@@H]1N)C1CCN(C)CC1 [Compound Z-131],hERG inhibition rate/10 μM,[1],39.88%
same,CYP3A4(M) inhibition rate/1 μM,CYP3A4,26.7%
CN1CCN(C(=O)Oc2ccc3c(c2)[C@@]2(C)CCCCC[C@@H](C3)[C@@H]2N)CC1 [Compound Z-2],"inhibition at 5 min, 1 μM",CYP3A4,19.8%
CC12CCCCCC(Cc3ccc(OC(=O)N4CCCC(C(=O)O)C4)cc31)C2N (stereo not drawn) [Compound Z-136],CYP3A4(M) inhibition rate/1 μM,CYP3A4,0%
CCN(CCN(C)C)C(=O)Oc1ccc2c(c1)[C@@]1(C)CCCCC[C@@H](C2)[C@@H]1N [Compound Z-113],hERG inhibition rate/10 μM,[1],16.02%
same,CYP3A4(M) inhibition rate/1 μM,CYP3A4,28.6%
C[C@@]12CCCCC[C@@H](Cc3ccc(OC(=O)NC4CCOCC4)cc31)[C@@H]2N [Compound Z-110],hERG inhibition rate/10 μM,[1],13.32%
same,CYP3A4(M) inhibition rate/1 μM,CYP3A4,28.0%
C[C@@]12CCCCC[C@@H](Cc3ccc(OC(=O)NCCO)cc31)[C@@H]2N [Compound Z-118],CYP3A4(M) inhibition rate/1 μM,CYP3A4,8.8%
C[C@@]12CCCCC[C@@H](Cc3ccc(OC(=O)NC4COC4)cc31)[C@@H]2N [Compound Z-117],hERG inhibition rate/10 μM,[1],20.59%
same,CYP3A4(M) inhibition rate/1 μM,CYP3A4,23.8%
CN(C(=O)Oc1ccc2c(c1)[C@@]1(C)CCCCC[C@@H](C2)[C@@H]1N)C1COC1 [Compound Z-141],CYP3A4(M) inhibition rate/1 μM,CYP3A4,30.8%
C[C@@]12CCCCC[C@@H](Cc3ccc(OC(=O)Nc4ccc(F)cc4)cc31)[C@@H]2N [Compound Z-35],"inhibition at 5 min, 1 μM",CYP3A4,88.1%
COCCCNC(=O)Oc1ccc2c(c1)[C@@]1(C)CCCCC[C@@H](C2)[C@@H]1N [Compound Z-19],"inhibition at 5 min, 1 μM",CYP3A4,33.6%
CN(CC(=O)O)C(=O)Oc1ccc2c(c1)[C@@]1(C)CCCCC[C@@H](C2)[C@@H]1N [Compound Z-100],"inhibition at 5 min, 1 μM",CYP3A4,1.6%
"C[C@@]12CCCCC[C@@H](Cc3ccc(O)cc31)[C@@H]2N [Dezocine, dezocine]",AUC,in vivo,58.6 ng·h/mL
same,oral bioavailability,[2],≤ 5%
C[C@@]12CCCCC[C@@H](Cc3ccc(OC(=O)N4CCC(CO)CC4)cc31)[C@@H]2N [Compound Z-128],CYP3A4(M) inhibition rate/1 μM,CYP3A4,41.9%
C[C@@]12CCCCC[C@@H](Cc3ccc(OC(=O)N4CC(O)C4)cc31)[C@@H]2N [Compound Z-114],hERG inhibition rate/10 μM,[1],17.07%
same,CYP3A4(M) inhibition rate/1 μM,CYP3A4,11.8%
COc1ccc(NC(=O)Oc2ccc3c(c2)[C@@]2(C)CCCCC[C@@H](C3)[C@@H]2N)nc1 [Compound Z-119],hERG inhibition rate/10 μM,[1],78%
CN(C)CCNC(=O)Oc1ccc2c(c1)[C@@]1(C)CCCCC[C@@H](C2)[C@@H]1N [Compound Z-144],CYP3A4(M) inhibition rate/1 μM,CYP3A4,22.2%
CC(=O)N1CCN(C(=O)Oc2ccc3c(c2)[C@@]2(C)CCCCC[C@@H](C3)[C@@H]2N)CC1 [Compound Z-125],CYP3A4(M) inhibition rate/1 μM,CYP3A4,18.1%
C[C@@]12CCCCC[C@@H](Cc3ccc(OC(=O)NC(CO)CO)cc31)[C@@H]2N [Compound Z-138],CYP3A4(M) inhibition rate/1 μM,CYP3A4,0%
CC1CNCCN1C(=O)Oc1ccc2c(c1)C1(C)CCCCCC(C2)C1N (stereo not drawn) [Compound Z-129],CYP3A4(M) inhibition rate/1 μM,CYP3A4,4.0%
COC1CN(C(=O)Oc2ccc3c(c2)[C@@]2(C)CCCCC[C@@H](C3)[C@@H]2N)C1 [Compound Z-111],CYP3A4(M) inhibition rate/1 μM,CYP3A4,45.7%
CN1CCC(NC(=O)Oc2ccc3c(c2)[C@@]2(C)CCCCC[C@@H](C3)[C@@H]2N)CC1 [Compound Z-140],CYP3A4(M) inhibition rate/1 μM,CYP3A4,8.7%
C[C@@]12CCCCC[C@@H](Cc3ccc(OC(=O)N4CCS(=O)(=O)CC4)cc31)[C@@H]2N [Compound Z-116],hERG inhibition rate/10 μM,[1],11.22%
same,CYP3A4(M) inhibition rate/1 μM,CYP3A4,14.2%
COCCOCCN(C)C(=O)Oc1ccc2c(c1)[C@@]1(C)CCCCC[C@@H](C2)[C@@H]1N [Compound Z-14],"inhibition at 5 min, 1 μM",CYP3A4,49.5%
CN(CCO)C(=O)Oc1ccc2c(c1)[C@@]1(C)CCCCC[C@@H](C2)[C@@H]1N [Compound Z-127],hERG inhibition rate/10 μM,[1],9.95%
same,CYP3A4(M) inhibition rate/1 μM,CYP3A4,17.4%
C[C@@]12CCCCC[C@@H](Cc3ccc(OC(=O)N4CCC(C(=O)O)CC4)cc31)[C@@H]2N [Compound Z-130],hERG inhibition rate/10 μM,[1],3.24%
same,CYP3A4(M) inhibition rate/1 μM,CYP3A4,13.0%
CC12CCCCCC(Cc3ccc(OC(=O)NC4CC(O)C4)cc31)C2N (stereo not drawn) [Compound Z-115],hERG inhibition rate/10 μM,[1],12.90%
same,CYP3A4(M) inhibition rate/1 μM,CYP3A4,18.0%
CC(CO)NC(=O)Oc1ccc2c(c1)C1(C)CCCCCC(C2)C1N (stereo not drawn) [Compound Z-126],hERG inhibition rate/10 μM,[1],4.92%
same,CYP3A4(M) inhibition rate/1 μM,CYP3A4,3.6%
C[C@@]12CCCCC[C@@H](Cc3ccc(OC(=O)NC4(CO)CC4)cc31)[C@@H]2N [Compound Z-122],hERG inhibition rate/10 μM,[1],1.91%
same,CYP3A4(M) inhibition rate/1 μM,CYP3A4,17.0%
C[C@@]12CCCCC[C@@H](Cc3ccc(OC(=O)N4CCC(N5CCCCC5)CC4)cc31)[C@@H]2N [Compound Z-49],inhibition at 10 μM,hERG potassium channel,14.4%
same,"inhibition at 5 min, 1 μM",CYP3A4,7.28%
COC(=O)C1CCCN(C(=O)Oc2ccc3c(c2)C2(C)CCCCCC(C3)C2N)C1 (stereo not drawn) [Compound Z-135],CYP3A4(M) inhibition rate/1 μM,CYP3A4,21.3%
C[C@@]12CCCCC[C@@H](Cc3ccc(OC(=O)Nc4ccc(O)cc4)cc31)[C@@H]2N [Compound Z-23],inhibition at 10 μM,hERG potassium channel,71.5%
same,"inhibition at 5 min, 1 μM",CYP3A4,89.2%
